Source: patent publication US12570675B2, “Boronic acid compounds” (LG CHEM, LTD., priority 2020, dated 2026)

Tests used:
[1] = biological target: Proteasome chymotrypsin-like activity (S26 protein from RPMI8226 cells) (Homo sapiens, UniProt P28074); type: biochemical; details: S26 protein from RPMI8226 cell extract 2 ug/well, substrate 20 uM, 37° C., 90 minutes; read-out: Proteasome chymotrypsin-like activity inhibition IC50
Summary of the method: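 RPMI8226 myeloma cell lysate (S26 fraction, 20 mM Tris-HCl pH 8.0; 2 ug/well) incubated with compound serially diluted from 10 uM (0.5% DMSO) and 20 uM Suc-LLVY-AMC (chymotrypsin-like) or Z-LLE-AMC (caspase-like) for 90 min at 37 °C. Fluorescence read; IC50 from % of uninhibited signal.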

[2] = biological target: Proteasome caspase-like activity (S26 protein from RPMI8226 cells) (Homo sapiens (Human), UniProt P28072); test: Proteasome caspase-like activity inhibition (Z-Leu-Leu-Glu-AMC fluorogenic substrate, RPMI8226 cell extract); type: biochemical; details: S26 protein from RPMI8226 cell extract 2 ug/well, substrate 20 uM, 37° C., 90 minutes
Experimental: The abilities to inhibit the proteasome activity of the compounds described in the Examples of the present invention and boronic acid drugs were evaluated as follows.
RPMI8226 cells, which is a multiple myeloma cell line, were cultured and then separated by a centrifuge, and washed twice with phosphate buffered saline (PBS). 20 mM of a tris-HCl (pH 8.0) buffer solution was added to the washed cells, and the cells were disrupted by a homogenizer and centrifuged to obtain S26 protein from the supernatant. Suc-Leu-Leu-Val-Tyr-AMC, for a fluorogenic substrate for the chymotrypsin-like activity of the proteasome, and Z-Leu-Leu-Glu-AMC, for a fluorogenic substrate for the caspase-like activity, were purchased from Calbiochem, EMD Millipore and used. Into each well of a 96-well plate (opaque, black round bottom), 20 ul of the S26 protein (final RPMI8226 cell extract concentration: 2 ug/well), 10 ul of S26 proteasome inhibitor serially diluted from 10 uM (final DMSO concentration: 0.5%), and 20 ul of the fluorogenic substrate for the proteasome chymotrypsin-like or caspase-like activity (final concentration: 20 uM) were added and mixed and allowed to react in a 37° C. incubator for 90 minutes. The fluorescence of the fluorogenic substrate was measured by FlexStation II Fluorometer (Molecular Devices). The fluorescence inhibited by the compound diluted at each concentration was measured as the relative percentage value for the amount obtained from the treatment only with the S26 protein and the fluorogenic substrate. IC50 (inhibitory concentration 50) was expressed in terms of a concentration that inhibits 50% of the maximum fluorescence induced by the fluorogenic substrate.

Chain of Proteasome chymotrypsin-like activity (S26 protein from RPMI8226 cells) (P28074 60-263 limits assumed): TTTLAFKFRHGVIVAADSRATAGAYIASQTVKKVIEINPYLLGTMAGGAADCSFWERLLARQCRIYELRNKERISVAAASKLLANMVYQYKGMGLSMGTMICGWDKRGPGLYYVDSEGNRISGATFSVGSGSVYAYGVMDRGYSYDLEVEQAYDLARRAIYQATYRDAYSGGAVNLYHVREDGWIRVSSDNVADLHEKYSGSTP
Chain of Proteasome caspase-like activity (S26 protein from RPMI8226 cells) (P28072 whole entry): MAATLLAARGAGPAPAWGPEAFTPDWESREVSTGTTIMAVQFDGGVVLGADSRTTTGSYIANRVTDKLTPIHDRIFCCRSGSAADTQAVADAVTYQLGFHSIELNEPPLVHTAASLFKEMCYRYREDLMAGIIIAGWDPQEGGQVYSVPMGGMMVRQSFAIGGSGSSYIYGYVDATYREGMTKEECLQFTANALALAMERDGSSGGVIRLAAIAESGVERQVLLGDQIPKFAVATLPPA

Row | IC50 [1] | IC50 [2] | Compound
1 | < 10 nM | > 1000 nM | CC(C)C[C@H](NC(=O)C1(Cc2ccccc2F)CC(CNC(=O)c2nccc3ccccc23)=NO1)B(O)O (stereo partly drawn) [Example 170, ((1R)-1-(5-(2-fluorobenzyl)-3-((isoquinolin-1-carboxamido)methyl)-4,5-dihydroisoxazol-5-carboxamido)-3-methylbutyl)boronic acid]
2 | < 10 nM | > 500 nM | CC(C)C[C@H](NC(=O)C1(Cc2ccccc2)CC(CNC(=O)c2ccnn2C(C)C)=NO1)B(O)O (stereo partly drawn) [Example 171, ((1R)-1-(5-benzyl-3-((1-isopropyl-1H-pyrazol-5-carboxamido)methyl)-4,5-dihydroisoxazol-5-carboxamido)-3-methylbutyl)boronic acid]
3 | < 10 nM | > 1000 nM | CC(C)C[C@H](NC(=O)C1(Cc2ccc(F)cc2F)CC(CNC(=O)c2nccc3ccccc23)=NO1)B(O)O (stereo partly drawn) [Example 178, ((1R)-1-(5-(2,4-difluorobenzyl)-3-((isoquinolin-1-carboxamido)methyl)-4,5-dihydroisoxazol-5-carboxamido)-3-methylbutyl)boronic acid]
4 | < 10 nM | > 500 nM | CC(C)C[C@H](NC(=O)C1(Cc2ccccc2)CC(CNC(=O)c2ccc(C(F)(F)F)nc2)=NO1)B(O)O (stereo partly drawn) [Example 179, ((1R)-1-(5-benzyl-3-((6-(trifluoromethyl)nicotinamido)methyl)-4,5-dihydroisoxazol-5-carboxamido)-3-methylbutyl)boronic acid]
5 | < 10 nM | > 1000 nM | CC(C)C[C@H](NC(=O)C1(Cc2ccccc2)CC(CNC(=O)c2cccc(C(F)(F)F)n2)=NO1)B(O)O (stereo partly drawn) [Example 186, ((1R)-1-(5-benzyl-3-((6-(trifluoromethyl)picolinamido)methyl)-4,5-dihydroisoxazol-5-carboxamido)-3-methylbutyl)boronic acid]
6 | < 10 nM | > 500 nM | CC(C)C[C@H](NC(=O)C1(Cc2cccc(F)c2)CC(CNC(=O)c2nccc3ccccc23)=NO1)B(O)O (stereo partly drawn) [Example 187, ((1R)-1-(5-(3-fluorobenzyl)-3-((isoquinolin-1-carboxamido)methyl)-4,5-dihydroisoxazol-5-carboxamido)-3-methylbutyl)boronic acid]
7 | < 10 nM | > 1000 nM | CC(C)C[C@H](NC(=O)C1(Cc2ccccc2)CC(CNC(=O)c2cnn(C(C)C)c2)=NO1)B(O)O (stereo partly drawn) [Example 188, ((1R)-1-(5-benzyl-3-((1-isopropyl-1H-pyrazol-4-carboxamido)methyl)-4,5-dihydroisoxazol-5-carboxamido)-3-methylbutyl)boronic acid]
8 | < 10 nM | > 1000 nM | CC(C)C[C@H](NC(=O)C1(Cc2ccccc2)CC(CNC(=O)c2ccnn2C2CCCC2)=NO1)B(O)O (stereo partly drawn) [Example 189, ((1R)-1-(5-benzyl-3-((1-cyclopentyl-1H-pyrazol-5-carboxamido)methyl)-4,5-dihydroisoxazol-5-carboxamido)-3-methylbutyl)boronic acid]
9 | < 10 nM | > 2500 nM | Cc1cc(C(=O)NCC2=NOC(Cc3ccccc3)(C(=O)N[C@@H](CC(C)C)B(O)O)C2)n(C(C)C)n1 (stereo partly drawn) [Example 190, ((1R)-1-(5-benzyl-3-((1-isopropyl-3-methyl-1H-pyrazol-5-carboxamido)methyl)-4,5-dihydroisoxazol-5-carboxamido)-3-methylbutyl)boronic acid]
10 | < 10 nM | > 1000 nM | Cc1cc(C(=O)NCC2=NOC(Cc3ccccc3)(C(=O)N[C@@H](CC(C)C)B(O)O)C2)n(C2CCCC2)n1 (stereo partly drawn) [Example 196, ((1R)-1-(5-benzyl-3-((1-cyclopentyl-3-methyl-1H-pyrazol-5-carboxamido)methyl)-4,5-dihydroisoxazol-5-carboxamido)-3-methylbutyl)boronic acid]
11 | < 10 nM | > 100 nM | CC(C)C[C@H](NC(=O)C1(Cc2ccccc2)CC(CNC(=O)c2n[nH]c3ccccc23)=NO1)B(O)O (stereo partly drawn) [Example 200, ((1R)-1-(3-((1H-indazol-3-carboxamido)methyl)-5-benzyl-4,5-dihydroisoxazol-5-carboxamido)-3-methylbutyl)boronic acid]
12 | < 10 nM | > 250 nM | CC(C)C[C@H](NC(=O)C1(Cc2ccccc2)CC(CNC(=O)c2nn(C)c3ccccc23)=NO1)B(O)O (stereo partly drawn) [Example 201, ((1R)-1-(5-benzyl-3-((1-methyl-1H-indazol-3-carboxamido)methyl)-4,5-dihydroisoxazol-5-carboxamido)-3-methylbutyl)boronic acid]
13 | < 10 nM | > 500 nM | CC(C)C[C@H](NC(=O)C1(Cc2ccccc2)CC(CNC(=O)c2cccc3c2cnn3C)=NO1)B(O)O (stereo partly drawn) [Example 204, ((1R)-1-(5-benzyl-3-((1-methyl-1H-indazol-4-carboxamido)methyl)-4,5-dihydroisoxazol-5-carboxamido)-3-methylbutyl)boronic acid]
14 | < 10 nM | > 500 nM | CC(C)C[C@H](NC(=O)C1(Cc2ccccc2)CC(CNC(=O)c2cccc3c2cnn3C(C)C)=NO1)B(O)O (stereo partly drawn) [Example 205, ((1R)-1-(5-benzyl-3-((1-isopropyl-1H-indazol-4-carboxamido)methyl)-4,5-dihydroisoxazol-5-carboxamido)-3-methylbutyl)boronic acid]
15 | < 10 nM | > 250 nM | CC(C)C[C@H](NC(=O)C1(Cc2ccccc2)CC(CNC(=O)c2cc(-c3ccccc3)nn2C(C)C)=NO1)B(O)O (stereo partly drawn) [Example 207, ((1R)-1-(5-benzyl-3-((1-isopropyl-3-phenyl-1H-pyrazol-5-carboxamido)methyl)-4,5-dihydroisoxazol-5-carboxamido)-3-methylbutyl)boronic acid]
16 | < 10 nM | > 500 nM | CC(C)C[C@H](NC(=O)C1(Cc2ccccc2)CC(CNC(=O)c2ccnc3c2ccn3C(C)C)=NO1)B(O)O (stereo partly drawn) [Example 211, ((1R)-1-(5-benzyl-3-((1-isopropyl-1H-pyrrolo[2,3-b]pyridin-4-carboxamido)methyl)-4,5-dihydroisoxazol-5-carboxamido)-3-methylbutyl)boronic acid]
17 | < 10 nM | > 100 nM | CC(C)C[C@H](NC(=O)C1(Cc2ccccc2)CC(CNC(=O)c2cnc3c(ccn3C(C)C)c2)=NO1)B(O)O (stereo partly drawn) [Example 212, ((1R)-1-(5-benzyl-3-((1-isopropyl-1H-pyrrolo[2,3-b]pyridin-5-carboxamido)methyl)-4,5-dihydroisoxazol-5-carboxamido)-3-methylbutyl)boronic acid]
18 | < 10 nM | > 2500 nM | CC(C)C[C@H](NC(=O)C1(Cc2ccccc2)CC(CNC(=O)c2cc(C(C)(C)C)nn2C(C)C)=NO1)B(O)O (stereo partly drawn) [Example 224, ((1R)-1-(5-benzyl-3-((3-(tert-butyl)-1-isopropyl-1H-pyrazol-5-carboxamido)methyl)-4,5-dihydroisoxazol-5-carboxamido)-3-methylbutyl)boronic acid]

Row | Compound | IC50 [1] | IC50 [2]
19 | CC(C)C[C@H](NC(=O)C1(Cc2ccccc2)CC(CNC(=O)c2nn(C(C)C)c3ccccc23)=NO1)B(O)O (stereo partly drawn) [Example 202, ((1R)-1-(5-benzyl-3-((1-isopropyl-1H-indazol-3-carboxamido)methyl)-4,5-dihydroisoxazol-5-carboxamido)-3-methylbutyl)boronic acid] | < 10 nM | > 500 nM
